Patent US6852485B1, “Method for identifying a compound for the treatment of microorganism infections by inhibiting energy storage and utilization in pathogens” (California State University Fullerton Foundation, priority 2002, dated 2005)

Biological target: T1, Rhodobacter sphaeroides (Rb.s.) ADPG Ppase (Cereibacter sphaeroides, UniProt Q9RNH7)
T1 construct: made in house
Assay: ADPGlc synthesis assay (14-C Glc-1-P converted to ADPGlucose) with purified recombinant Rb.s. ADPG Ppase, with and without activator F6P
Assay type: biochemical
Settings: for inhibition of Rb.s. ADPG Ppase: 500 μM analog, 0.25 mM ATP, 0.5 mM Glc-1-P, pH 7
Text: One particular in vitro method for assessing the activity of an inhibitor to purified ADPGlc PPase is the following: • Assaying for ADPGlc synthesis activity involves measuring the amount of 14-C labeled Glc-1-P converted to ADPGlucose (Preiss, J., Shen, L., Greenberg, E., and Gentner, N. (1966) Biochemistry 5, 1833-1845). Briefly, unreacted Glc-1-P is separated from product by the following steps: 1)digestion with alkaline phosphatase (thus removing the negatively charged phosphate); 2) spotting an aliquot of the reaction mixture on to positively charged DE-81 filters (Whatman); and 3) washing the filters with water (thus removing the now neutral C-14 glucose).
To assess the effect of a putative inhibitor, enzyme assays are performed at a subsaturating concentration of substrate (depending on the enzyme, ATP=0.2-1 mM, Glc-1-P=0.5 mM) under standard conditions in the absence and presence of the major activator for each enzyme (1-5 mM depending on enzyme). In this way, the effect of the inhibitors can be evaluated under the range of the expected in vivo conditions. Initial screening of a putative inhibitor typically includes testing at two concentrations (˜25 μM and 1 mM)±major activator with appropriate controls and blanks for a total of 9 assays/inhibitor/enzyme (2 control assays—appropriate enzyme concentrations in the absence of inhibitor; 4 experimental assays; 1 blank in the absence of inhibitors; 2 blanks in the presence of inhibitor (no activator required).
The APDGIc Ppase from Rhodobacter sphaeroides has been used as a model enzyme for initial testing of inhibitors as it has been cloned, sequenced, and expressed in the inventor's laboratory (Meyer et al (1999) Arch. Biochem. Biophys. 372, 179-188; Igarashi, R. Y. and Meyer, C. R. (2000) Arch. Biochem. Biophys. 376, 47-58) and the purified recombinant enzyme is readily available. Further, this particular enzyme has the most complex regulation (having partial overlap with nearly every type of ADPG Ppase) and has sufficient homology (ranging from ˜40-70% similarity) to the enzyme primary sequence from the mentioned pathogenic bacteria.
PREMIX: A: 100 mM HEPES (pH 7), 0.5 mg/mL BSA, 0.5 mM Glc-1-P, 0.25 mM ATP subsaturating (near S0.5 value), 5 mM MgCl2, (0.2 U Pyrophosphatase))
PREMIX B: A+1 mM F6P (170 μL premix will allow 20 μL for analog vol., 10 μL of E)
II. ANALOG CONC.=5, 50, 500 μM (STOCK CONC.=5 mM) in 50 mM HEPES, pH 7, note that 20 μL of 5 mM in 200 μL assay will yield 500 μM final concentration to obtain 5 mM aliquots: • ANALOG I: add 625 μL of HEPES buffer, mix thoroughly • ANALOG II: add 500 μL of HEPES buffer, mix thoroughly
1:10 DILUTION ALIQUOTS OF 5 mM STOCKS are prepared in order to generate stock solutions that will give 50 and 5 μM with the addition of 20 μL. 100 μL aliquots are stored at −20 C
RBS ADPG PPASE WT ENZYME CONC.=17 mg/mL (use 1:8000 dilution in Dilution Buffer)
THE FOLLOWING ASSAY SET OF 11 ARE UTILIZED FOR EACH ANALOG • 1-BLANK (Premix A) • 2-BLANK+50 μM ANALOG (A) • 3-BLANK+500 μM ANALOG (A) • 4-E CON (A) • 5-E CON+F6P (B) • 6-E+5 μM (A) • 7-E+5 μM((B) • 8-E+50 μM(A) • 9-E+50 μM(B) • 10-E+500 μM (A) • 11-E+500 μM (B)
Purified Rb.s ADPG Ppase was assayed under standard conditions (0.25 mM ATP [˜S0.5 value], 0.5 mM Glc-1-P, 5 mM Mg, 100 mM HEPES, pH7) in the presence and absence of the activator F6P (1 mM) at 3 concentrations of the analogs: 5, 50, and 500 μM. Analog stock solutions were made in 50 mM HEPES, pH 7). These concentrations should be regarded as estimates as there could have been some breakdown of the compounds during 2 years of storage at −20° C. The analogs had no effect on the background cpm of the assays.

[1] = E + 5 uM analog, Premix A (no F6P)
[2] = E + 5 uM analog, Premix B (+1 mM F6P)
[3] = E + 50 uM analog, Premix A (no F6P)
[4] = E + 50 uM analog, Premix B (+1 mM F6P)
[5] = E + 500 uM analog, Premix A (no F6P)
[6] = E + 500 uM analog, Premix B (+1 mM F6P)

T1 sequence (Q9RNH7 whole entry): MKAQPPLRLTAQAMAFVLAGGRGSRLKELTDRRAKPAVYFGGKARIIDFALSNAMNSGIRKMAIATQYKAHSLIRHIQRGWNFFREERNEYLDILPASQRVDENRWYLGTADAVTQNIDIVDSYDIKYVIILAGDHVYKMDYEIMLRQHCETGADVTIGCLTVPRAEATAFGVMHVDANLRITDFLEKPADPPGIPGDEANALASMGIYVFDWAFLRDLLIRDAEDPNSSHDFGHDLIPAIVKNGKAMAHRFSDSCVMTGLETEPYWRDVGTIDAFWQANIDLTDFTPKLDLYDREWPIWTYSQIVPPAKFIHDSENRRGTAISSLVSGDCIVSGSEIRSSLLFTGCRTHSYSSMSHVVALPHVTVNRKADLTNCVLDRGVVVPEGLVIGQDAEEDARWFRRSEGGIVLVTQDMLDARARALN

| SMILES | inhibition of Rb.s. ADPG Ppase (absence of the activator F6P) | inhibition of Rb.s. ADPG Ppase (presence of F6P (1 mM)) | Units/mg (enzyme activity) [1] | Units/mg (enzyme activity) [2] | Units/mg (enzyme activity) [3] | Units/mg (enzyme activity) [4] | Units/mg (enzyme activity) [5] | Units/mg (enzyme activity) [6] |
| --- | --- | --- | --- | --- | --- | --- | --- | --- |
| BP(=O)(OC[C@H]1O[C@@H](n2cnc3c(N)ncnc32)[C@H](O)[C@@H]1O)OP(=O)(O)O[C@H]1O[C@H](CO)[C@@H](O)[C@H](O)[C@H]1O (single isomer, unassigned) [Analog I, adenosine-α-P-boranodiphosphoglucose] | about 75% | ~50% | 4.02 Units/mg | 91.75 Units/mg | 3.55 Units/mg | 87.40 Units/mg | 1.33 Units/mg | 53.37 Units/mg |
| BP(=O)(OC[C@H]1O[C@@H](n2cnc3c(N)ncnc32)[C@H](O)[C@@H]1O)OP(=O)(O)O[C@H]1O[C@H](CO)[C@@H](O)[C@H](O)[C@H]1O (single isomer, unassigned) [Analog II, adenosine-α-P-boranodiphosphoglucose] | about 70% | about 70% | 5.28 Units/mg | 93.86 Units/mg | 4.38 Units/mg | 76.73 Units/mg | 1.77 Units/mg | 33.51 Units/mg |
